Results published in ChEMBL document CHEMBL6109147, “Discovery of Potent STING Inhibitors Bearing a Difluorobenzodioxol Structural Motif as Potent Anti-Inflammatory Agents” (J Med Chem, 2025).
Activity calls are given as the source filed them. The rule behind the calls is not given here.

Legend:
[1] = tested on: Mus musculus; test: Anti-inflammatory activity against MSA-2 induced C57BL/6 mouse inflammation model assessed as inhibition of MSA-2 induced IP-10 level in plasma at 10 mg/kg, ip pre-treated for 1 hr followed by stimulated with MSA-2 for 4 hrs by ELISA; assay type: functional, organism-based; conditions: time 5.0 hrs
[2] = tested on: HEK293; test: Protection of Cisplatin induced apoptosis in human HEK293 cells assessed as apoptotic cells at 10 uM measured after 72 hrs by flow cytometry; assay type: functional, cell-based
[3] = biological target: Stimulator of interferon genes protein (Homo sapiens) (UniProt Q86WV6); test: Inhibition of STING downstream signalling in human THP1-Dual cells assessed as inhibition of cGAMP induced IP-10 mRNA expression at 0.3 to 3 uM pre-treated for 1 hr followed by stimulated with cGAMP measured after 4 hrs by real-time PCR analysis; assay type: cell-based; conditions: dose 0.3-3 µM, time 5.0 hrs
[4] = tested on: Mus musculus; test: Anti-inflammatory activity in TREX1 D18N mouse model assessed as reduction in IL6 mRNA expression in heart at 10 mg/kg, ip measured after 2 weeks; assay type: functional, organism-based
[5] = biological target: Stimulator of interferon genes protein (Homo sapiens) (UniProt Q86WV6); test: Inhibition of STING downstream signalling in human THP1-Dual cells assessed as inhibition of cGAMP induced IFN-beta mRNA expression at 0.3 to 3 uM pre-treated for 1 hr followed by stimulated with cGAMP measured after 4 hrs by real-time PCR analysis; assay type: cell-based; conditions: dose 0.3-3 µM, time 5.0 hrs
[6] = Metabolic stability in rat liver microsomes assessed as microsomal intrinsic clearance; assay type: ADME, Microsome; conditions: read-out: CLH
[7] = tested on: Mus musculus; test: Effect on Isg15 expression in Cisplatin induced C57BL/6 STING-KO mouse kidney inflammation model at 5 mg/kg, ip treated for 3 days by real-time PCR analysis; assay type: functional, organism-based; conditions: time 3.0 day
[8] = Volume of distribution at steady state in Sprague-Dawley rat at 1 mg/kg, iv; assay type: ADME, organism-based; conditions: Sprague-Dawley, in vivo, read-out: Vdss
[9] = MRT (0 to infinity) in Sprague-Dawley rat at 1 mg/kg, iv; assay type: ADME, organism-based; conditions: Sprague-Dawley, in vivo
[10] = biological target: Stimulator of interferon genes protein (Homo sapiens) (UniProt Q86WV6); test: Inhibition of STING downstream signalling in human THP1-Dual cells assessed as inhibition of cGAMP induced IFN-beta secretion at 0.3 to 3 uM pre-treated for 1 hr followed by stimulated with cGAMP measured after 24 hrs by ELISA; assay type: cell-based; conditions: dose 0.3-3 µM, time 25.0 hrs
[11] = MRT (0 to infinity) in Sprague-Dawley rat at 3 mg/kg, po; assay type: ADME, organism-based; conditions: in vivo
[12] = tested on: Mus musculus; test: Effect on Ifn-beta expression in Cisplatin induced C57BL/6 STING-KO mouse kidney inflammation model at 5 mg/kg, ip treated for 3 days by real-time PCR analysis; assay type: functional, organism-based; conditions: time 3.0 day
[13] = tested on: Mus musculus; test: Anti-inflammatory activity in TREX1 D18N mouse model assessed as reduction in Isg56 mRNA expression in heart at 10 mg/kg, ip measured after 2 weeks; assay type: functional, organism-based
[14] = tested on: Mus musculus; test: Anti-inflammatory activity in TREX1 D18N mouse model assessed as reduction in Ccl5 mRNA expression in heart at 10 mg/kg, ip measured after 2 weeks; assay type: functional, organism-based
[15] = tested on: Mus musculus; test: Anti-inflammatory activity against Cisplatin induced C57BL/6 mouse kidney inflammation model assessed as suppression of Cisplatin induced Isg56 mRNA level in kidney at 5 mg/kg, ip treated for 3 days by real-time PCR analysis; assay type: functional, organism-based; conditions: time 3.0 day
[16] = tested on: Mus musculus; test: Anti-inflammatory activity against Cisplatin induced C57BL/6 STING-KO mouse kidney inflammation model assessed as prevention of Cisplatin induced interstitial vacuolation at 5 mg/kg, ip treated for 3 days; assay type: functional, organism-based; conditions: time 3.0 day
[17] = biological target: Stimulator of interferon genes protein (Homo sapiens) (UniProt Q86WV6); test: Inhibition of STING downstream signalling in human THP1-Dual cells assessed as inhibition of MSA-2 induced IP-10 secretion at 0.3 to 3 uM pre-treated for 1 hr followed by stimulated with MSA-2 measured after 24 hrs by ELISA; assay type: cell-based; conditions: dose 0.3-3 µM, time 25.0 hrs
[18] = tested on: Mus musculus; test: Anti-inflammatory activity against MSA-2 induced C57BL/6 mouse inflammation model assessed as inhibition of MSA-2 induced IL-6 level in kidney at 10 mg/kg, ip pre-treated for 1 hr followed by stimulated with MSA-2 for 4 hrs by ELISA; assay type: functional, organism-based; conditions: time 5.0 hrs
[19] = tested on: Mus musculus; test: Toxicity in TREX1 D18N mouse model assessed as change in body weight at 10 mg/kg, ip measured after 2 weeks; assay type: organism-based; conditions: in vivo, 336 h
[20] = tested on: Stimulator of interferon genes protein (Homo sapiens), Q86WV6 [UNDEFINED MUTATION]; test: Inhibition of human STING expressed in 293T-Dual-hSTING-293Q cells assessed as reduction in cGAMP-induced secreted luciferase reporter of interferon stimulated gene (ISG) measured after 24 hrs incubation; assay type: cell-based
[21] = biological target: Stimulator of interferon genes protein (Homo sapiens) (UniProt Q86WV6); test: Inhibition of STING downstream signalling in human THP1-Dual cells assessed as inhibition of MSA-2 induced IFN-beta secretion at 0.3 to 3 uM pre-treated for 1 hr followed by stimulated with MSA-2 measured after 24 hrs by ELISA; assay type: cell-based; conditions: dose 0.3-3 µM, time 25.0 hrs
[22] = tested on: Mus musculus; test: Anti-inflammatory activity against MSA-2 induced C57BL/6 mouse inflammation model assessed as inhibition of MSA-2 induced IP-10 level in kidney at 10 mg/kg, ip pre-treated for 1 hr followed by stimulated with MSA-2 for 4 hrs by ELISA; assay type: functional, organism-based; conditions: time 5.0 hrs
[23] = Metabolic stability in human liver microsomes assessed as half life; assay type: ADME, Microsome
[24] = biological target: Stimulator of interferon genes protein (Homo sapiens) (UniProt Q86WV6); test: Binding affinity to Flag-tagged human STING expressed in HEK293T cells assessed as labelling at 0.5 to 4 uM pretreated for 15 mins measured after 1 hr in presence of 1 uM 1-(2,2-difluorobenzo[d][1,3]dioxol-5-yl)-3-(5-ethynyl-1H-indol-3-yl)urea by TAMRA-N3 fluorescent assay; assay type: cell-based; conditions: dose 0.5-4 µM, time 75.0 min
[25] = tested on: Mus musculus; test: Anti-inflammatory activity against MSA-2 induced C57BL/6 mouse inflammation model assessed as inhibition of MSA-2 induced TNF-alpha mRNA expression in kidney at 10 mg/kg, ip pre-treated for 1 hr followed by stimulated with MSA-2 for 4 hrs by real-time PCR analysis; assay type: functional, organism-based; conditions: time 5.0 hrs
[26] = tested on: Mus musculus; test: Anti-inflammatory activity in TREX1 D18N mouse model assessed as reduction in Isg56 mRNA expression in kidney at 10 mg/kg, ip measured after 2 weeks; assay type: functional, organism-based
[27] = tested on: Mus musculus; test: Anti-inflammatory activity in TREX1 D18N mouse model assessed as reduction in Ifn-beta mRNA expression in kidney at 10 mg/kg, ip measured after 2 weeks; assay type: functional, organism-based
[28] = Oral bioavailability in Sprague-Dawley rat at 3 mg/kg; assay type: ADME, organism-based; conditions: in vivo
[29] = tested on: Mus musculus; test: Anti-inflammatory activity against Cisplatin induced C57BL/6 mouse kidney inflammation model assessed as prevention of Cisplatin induced glomerular injury at 5 mg/kg, ip treated for 3 days; assay type: functional, organism-based; conditions: time 3.0 day

Sequence of Stimulator of interferon genes protein (Homo sapiens) (Q86WV6 whole entry): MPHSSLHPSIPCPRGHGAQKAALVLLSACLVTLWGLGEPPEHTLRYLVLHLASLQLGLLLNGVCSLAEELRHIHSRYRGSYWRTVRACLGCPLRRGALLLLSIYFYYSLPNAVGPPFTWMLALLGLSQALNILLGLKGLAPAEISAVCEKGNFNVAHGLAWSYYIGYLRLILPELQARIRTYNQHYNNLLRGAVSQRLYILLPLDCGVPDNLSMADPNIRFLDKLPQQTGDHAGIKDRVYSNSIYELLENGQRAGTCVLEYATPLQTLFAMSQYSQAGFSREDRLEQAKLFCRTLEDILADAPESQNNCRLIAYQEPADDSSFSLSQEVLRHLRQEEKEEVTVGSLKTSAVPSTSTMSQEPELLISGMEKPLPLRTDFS
Sequence of Stimulator of interferon genes protein (Homo sapiens), Q86WV6 [UNDEFINED MUTATION] (Q86WV6 whole entry, looked up, change not shown): as the sequence (Q86WV6 whole entry) above

inhibition [3]: Active
inhibition [5]: Active
microsomal CLint [6]: 36 µL/min/mg
Vd [8]: 2.38 L/kg
MRT inf [9]: 22.8 min
inhibition [10]: Active
MRT [11]: 7.66 h
inhibition [17]: Active
inhibition [20]: Active
inhibition [21]: Active
half-life [23]: 33.8 min
Activity [24]: inactive
bioavailability [28]: 12.7%
SMILES: N#CC/C=C/c1ccc2[nH]cc(NC(=O)Nc3ccc4c(c3)OC(F)(F)O4)c2c1
inhibition [1]: Active
Activity [2]: Active
Activity [4]: Active
Activity [7]: inactive
Activity [12]: inactive
Activity [13]: Active
Activity [14]: Active
inhibition [15]: Active
Activity [16]: inactive
inhibition [18]: Active
Activity [19]: Non-toxic
inhibition [22]: Active
inhibition [25]: Active
Activity [26]: Active
Activity [27]: Active
inhibition [29]: inactive
